The values that follow come from patent US20260217983A1, “SULFONIUM SALT PHOTOINITIATORS AND METHODS OF LED CURING A COMPOSITION WITH SAID SULFONIUM SALT PHOTOINITIATORS” (ARKEMA FRANCE, priority 2022, published 2026).

Data set [1] can be described thus: Real time FT-IR curing performance in UViCure S105 at 365 and 385 nm. To be noted: for Polymerization rate Rp/[M0]*100 / Final conversion: UViCure S105, 20 μm thickness, under air; for Final conversion: epoxide band; for cure speed compared with photoinitiators known from prior art such as Omnicat BL 550: LED lamp conditions, Example 2. How it is done: (§1) The curing performance of individual products prepared above was assessed using real time FT-IR measurement. The photoinitiators were dissolved in cycloaliphatic epoxy resin UViCure S105 (available from Sartomer) at the indicated wt % loading, applied onto the FT-IR measurement plate and irradiated with the indicated LED light source. The polymerization rate and final reactive group conversion were determined by monitoring the change of the relevant infrared band near 900 cm^−1 corresponding to an epoxide ring during irradiation. The molar extinction coefficients for the photoinitiator products (ε, expressed in M^−1 cm^−1) were determined in acetonitrile at 10^-3 M or 10^-5 M concentration.

A short description of data set [2]: Molar extinction coefficient in acetonitrile. The class given is physicochemical. How it is done:
as §1

Data set [3] is described as follows: Real time FT-IR curing performance at 405 nm in neat TMPTA. To be noted: 20 μm thickness, laminated; for Acrylate Polymerization rate Rp/[M0]*100: LED @405 nm (110 W/cm^2); for Acrylate Final conversion: LED @405 nm (110 mW/cm^2). How it is done:
(§2) The curing performance of individual products prepared above was assessed using real time FT-IR measurement. The photoinitiators were dissolved either in neat trimethylolpropane triacrylate (TMPTA; available as SR351 from Sartomer) or in a 1:1 (w/w) mixture of TMPTA and UViCure S105 as indicated, applied onto the FT-IR measurement plate, laminated to prevent oxygen inhibition, and irradiated with the indicated LED light source. For the epoxy component, the polymerization rate and final reactive group conversion were determined by monitoring the change of the relevant infrared band near 900 cm^−1 corresponding to an epoxide ring. For the acrylate component, the C═C stretch band near 1625 cm^−1 was used.

The nature of data set [4]: Real time FT-IR curing performance at 405 nm in UViCure S105/TMPTA (1:1). Particulars: LED @405 nm (110 mW/cm^2), 20 μm thickness, laminated. How it is done: as §2
Data set [5] is described as follows: Belt curing performance (thumb-twist depth cure) in UViCure S105E resin. Particulars: 24 μm film, under air, PI 2 wt %. On the procedure:
(§3) The photoinitiators were dissolved either in neat UViCure S105E resin or a hybrid acrylate/epoxy resin (prepared by mixing 60 wt parts UViCure S105E, 15 wt parts UViCure S130 and 25 wt parts SR492; all product are available from Sartomer). Formulations were prepared by combining all materials in the given proportions and then stirring at 30-40° C. until the samples were fully homogeneous; the formulations were then allowed to cool to room temperature. For all experiments, the formulations were cured on Leneta Form 3N-31 gloss finish paper at 6 μm and 24 μm film thickness using a belt-cure instrument; the films were prepared using a K-bar. All films were then cured under an LED lamp at a given belt speed. ‘Depth cure’ for each formulation was assessed using the ‘thumb-twist’ test (where no visible mark is made when a thumb is pressed down firmly onto the coating with a twisting motion), and from the belt speed; the calculated cure speed (in m/min) is given.

A short description of data set [6]: Belt curing performance (thumb-twist depth cure) in hybrid acrylate/epoxy resin. To be noted: 24 μm film, under air, PI 2 wt %. On the procedure: as §3
Data set [7] in a line: Colour index 'b' of formulations before and after polymerization. It is filed as physicochemical. Particulars: UViCure S105E, thin samples (20 μm), under air, 300 s irradiation. On the procedure:
The low yellowing characteristics can be measured by the Colour index ‘b’ value on cured films.
Formulations comprising the photoinitiators and neat UViCure S105E resin were prepared as described at example 2.

Where [8] appears, read: LED @365 nm (120 W/cm^2), PI loading 1 wt % (Omnicat BL 550 4 wt %; Speedcure 938/CPTX 1/0.5 wt %).
[9] abbreviates: LED 365 nm, 100% intensity (=70.1 mJ/cm^2), belt speed 40 m/min.

Take `CCCOc1ccc(Cl)c2c(=O)c3cc([S+](c4ccc(C)cc4)c4ccc(C(=O)c5ccccc5)cc4)ccc3sc12` (stereo not shown) [Photoinitiator 3, (4-benzoylphenyl)(8-chloro-9-oxo-5-propoxy-9H-thioxanthen-2-yl)(4-methylphenyl)sulfonium hexafluorophosphate]: the figures for the “Polymerization rate Rp/[M0]*100” value in data set [1] (setting [8]) and in data set [1] (LED @385 nm (160 W/cm^2)) were 2.70 s⁻¹ and 2.46 s⁻¹, respectively. The Final conversion turned out to be 38% in data set [1] (LED @365 nm (120 W/cm^2)) and 37% in data set [1] (LED @385 nm (160 W/cm^2)). Also, the “ε at 365 nm” value in data set [2] stood at 17066 M⁻¹ cm⁻¹. Moreover, the “ε at 385 nm” value in data set [2] was determined as 17083 M⁻¹ cm⁻¹. The “Acrylate Polymerization rate Rp/[M0]*100” value in data set [3] is 5.88 s⁻¹; in data set [4] it was 5.69 s⁻¹. Moreover, the “Acrylate Final conversion” value in data set [3] is listed as 45%; in data set [4], 75%. For the same compound, in data set [4], the “Epoxy Final conversion” value came to 35%. In data set [4], the “Epoxy Polymerization rate Rp/[M0]*100” value was found to be 2.43 s⁻¹. The “Cure speed in UViCure S105E resin” value in data set [5] (setting [9]) was found to be 4.8 m/min; in data set [5] (LED 395 nm, 40 m/min, 100% intensity (=164.5 mJ/cm^2)), 8.7 m/min. The “Cure speed in hybrid acrylate/epoxy resin” value in data set [6] (setting [9]) is recorded as 2.2 m/min; in data set [6] (LED 395 nm, 80 m/min, 50% intensity (=36.9 mJ/cm^2)), “no cure”. For the same compound, the “Colour index ‘b’ value After Polymerization” value worked out at 7.40 in data set [7] (LED @365 nm (120 mW/cm^2)) and 7.48 in data set [7] (LED @385 nm (160 mW/cm^2)). In addition, the “Colour index ‘b’ value Before Polymerization” value stood at 11.28 in data set [7] (LED @365 nm (120 mW/cm^2)) and 8.40 in data set [7] (LED @385 nm (160 mW/cm^2)).

For `COC(=O)COc1ccc2sc3ccc(-[s+]4c5ccccc5c(=O)c5cc(OCC(=O)OC)ccc54)cc3c(=O)c2c1` (stereo not shown) [Photoinitiator 6, 2-(2-methoxy-2-oxoethoxy)-10-[7-(2-methoxy-2-oxoethoxy)-9-oxo-9H-thioxanthen-2-yl]-9-oxo-9H-thioxanthen-10-ium Hexafluorophosphate], in data set [1] (setting [8]), the “Polymerization rate Rp/[M0]*100” value was 0.72 s⁻¹. In data set [1] (LED @365 nm (120 W/cm^2)), this compound displayed a Final conversion of 35%. In data set [1] (LED @385 nm (160 W/cm^2)), the “Polymerization rate Rp/[M0]*100” value came to 2.01 s⁻¹ and the Final conversion was 36%. In data set [2], the “ε at 365 nm” value is 18314 M⁻¹ cm⁻¹ and the “ε at 385 nm” value worked out at 24656 M⁻¹ cm⁻¹.

Turning to `CC(C)c1ccc2c(c1)c(=O)c1ccccc1[s+]2-c1ccc(Oc2ccccc2)cc1` (stereo not shown) [Photoinitiator 12, 9-oxo-10-(4-phenoxyphenyl)-2-(propan-2-yl)-9H-thioxanthen-10-ium Hexafluorophosphate], the “Polymerization rate Rp/[M0]*100” value in data set [1] (setting [8]) is 2.93 s⁻¹. In data set [1] (LED @365 nm (120 W/cm^2)), this compound gave a Final conversion of 32%. Moreover, in data set [1] (LED @385 nm (160 W/cm^2)), the “Polymerization rate Rp/[M0]*100” value was 2.74 s⁻¹ and the Final conversion was 36%. For the same compound, in data set [2], the “ε at 365 nm” value came out at 185 M⁻¹ cm⁻¹ and the “ε at 385 nm” value worked out at 137 M⁻¹ cm⁻¹.

In the case of `CCCOc1ccc(Cl)c2c1[SH](c1ccc(Oc3ccccc3)cc1)c1ccccc1C2=O` (stereo not shown) [Photoinitiator 16, 1-chloro-9-oxo-10-(4-phenoxyphenyl)-4-propoxy-9H-thioxanthen-10-ium hexafluorophosphate], the figures for the “Polymerization rate Rp/[M0]*100” value in data set [1] (setting [8]) and in data set [1] (LED @385 nm (160 W/cm^2)) were 2.88 s⁻¹ and 3.71 s⁻¹, respectively. The Final conversion in data set [1] (LED @365 nm (120 W/cm^2)) came out at 40%; in data set [1] (LED @385 nm (160 W/cm^2)), 38%. For the same compound, the “ε at 365 nm” value in data set [2] was determined as 20030 M⁻¹ cm⁻¹. Also, the “ε at 385 nm” value in data set [2] is 6830 M⁻¹ cm⁻¹.

Consider `COc1ccc(-c2ccc(-[s+]3c4ccccc4c(=O)c4cc(C(C)C)ccc43)cc2)cc1` (stereo not shown) [Photoinitiator 26, 10-(4′-methoxy[1,1-biphenyl]-4-yl)-9-oxo-2-(propan-2-yl)-9H-thioxanthen-10-ium hexafluorophosphate], for which the “Polymerization rate Rp/[M0]*100” value in data set [1] (setting [8]) came out at 4.94 s⁻¹. For the same compound, the Final conversion in data set [1] (LED @365 nm (120 W/cm^2)) is reported as 26%. In addition, in data set [1] (LED @385 nm (160 W/cm^2)), the “Polymerization rate Rp/[M0]*100” value was 3.08 s⁻¹ and the Final conversion was 28%. Also, the “cure speed compared with photoinitiators known from prior art such as Omnicat BL 550” value in data set [1] is given as “higher cure speed”. Further, in data set [2], the “ε at 365 nm” value was 3600 M⁻¹ cm⁻¹ and the “ε at 385 nm” value worked out at 1622 M⁻¹ cm⁻¹.

With `COc1ccccc1-c1cc(-[s+]2c3ccccc3c(=O)c3cc(C(C)C)ccc32)ccc1OC` (stereo not shown) [Photoinitiator 28, 10-(2′,6-dimethoxy[1,1′-biphenyl]-3-yl)-9-oxo-2-(propan-2-yl)-9H-thioxanthen-10-ium hexafluorophosphate], the “Polymerization rate Rp/[M0]*100” value in data set [1] (setting [8]) was 2.29 s⁻¹; in data set [1] (LED @385 nm (160 W/cm^2)), 5.78 s⁻¹. The figures for the Final conversion in data set [1] (LED @365 nm (120 W/cm^2)) and in data set [1] (LED @385 nm (160 W/cm^2)) were 34% and 36%, respectively. Also, in data set [2], the “ε at 365 nm” value came to 426 M⁻¹ cm⁻¹. Also, the “ε at 385 nm” value in data set [2] was determined as 268 M⁻¹ cm⁻¹.

On to `CCCOc1ccc(Cl)c2c(=O)c3ccccc3[s+](-c3ccc(-c4ccc(OC)cc4)cc3)c12` (stereo not shown) [Photoinitiator 32, 1-chloro-10-(4′-methoxy[1,1′-biphenyl]-4-yl)-9-oxo-4-propoxy-9H-thioxanthen-10-ium Hexafluorophosphate], for which the “Polymerization rate Rp/[M0]*100” value in data set [1] (setting [8]) was found to be 3.73 s⁻¹. Besides, in data set [1] (LED @365 nm (120 W/cm^2)), the Final conversion came to 28%. Besides, in data set [1] (LED @385 nm (160 W/cm^2)), the “Polymerization rate Rp/[M0]*100” value came to 4.86 s⁻¹ and the Final conversion stood at 33%. For the same compound, the “cure speed compared with photoinitiators known from prior art such as Omnicat BL 550” value in data set [1] is “higher cure speed”. In data set [2], the “ε at 365 nm” value amounted to 4507 M⁻¹ cm⁻¹ and the “ε at 385 nm” value came out at 2055 M⁻¹ cm⁻¹.

Consider `CCc1cc(CC)c2sc3ccc(-[s+]4c5ccccc5c(=O)c5cc(CC)cc(CC)c54)cc3c(=O)c2c1` (stereo not shown) [Photoinitiator 40, 10-(5,7-diethyl-9-oxo-9H-thioxanthen-2-yl)-2,4-diethyl-9-oxo-9H-thioxanthen-10-ium Hexafluorophosphate], for which, in data set [1] (setting [8]), the “Polymerization rate Rp/[M0]*100” value is 2.72 s⁻¹. Moreover, in data set [1] (LED @365 nm (120 W/cm^2)), the Final conversion stood at 18%. Moreover, in data set [1] (LED @385 nm (160 W/cm^2)), the “Polymerization rate Rp/[M0]*100” value is 5.89 s⁻¹ and the Final conversion is recorded as 38%. In data set [2], the “ε at 365 nm” value came out at 19117 M⁻¹ cm⁻¹ and the “ε at 385 nm” value was found to be 15504 M⁻¹ cm⁻¹. In data set [3], the “Acrylate Polymerization rate Rp/[M0]*100” value worked out at 5.86 s⁻¹ and the “Acrylate Final conversion” value was 65%. Also, in data set [4], the “Acrylate Final conversion” value was 83%, the “Acrylate Polymerization rate Rp/[M0]*100” value was 10.81 s⁻¹, the “Epoxy Final conversion” value is listed as 52% and the “Epoxy Polymerization rate Rp/[M0]*100” value came out at 6.46 s⁻¹.
